Several values for one entry are separate records, joined by “and”; a condition that tells them apart may be missing. Identical values can stand only once. Like-named read-outs stand apart in the source and are kept apart here.
How the values were obtained:
[1] = Hydrolysis Assay of Example A2, Condition 1 (SGF with pepsin, pH 1.5, 37° C.); assay type: physicochemical; settings: for Condition 1 Conversion (%), second value of a/b: value after the slash
[2] = 5 µM
[3] = 5 µM; remark: listed apart in the source
Procedure: 50 uL aliquots of positive controls and test compounds spiked into rat or human plasma (n=2) were added to a pre-warmed plate (37° C.) and shaken at 50 rpm. At each respective time point, the reaction was stopped by adding 500 μL of acetonitrile containing internal standards (100 nM aprozolam, 200 nM caffeine, 100 nM tolbutamide). All samples were vortexed for 10 minutes, followed by centrifugation at 3,220 g for 30 minutes to precipitate proteins. 100 μL of the supernatant is transferred to a new plate. The supernatant will be diluted with ultrapure water according to the LC-MS signal response and peak shape.

[4] = SGF with pepsin pH 1.5, 37° C., 0.5 mM, time 1 min
[5] = SGF with pepsin pH 1.5, 37° C., 0.5 mM, time 5 min
[6] = SGF with pepsin pH 1.5, 37° C., 0.5 mM, time 30 min
[7] = SGF with pepsin pH 1.5, 37° C., 0.5 mM, time 1 h
[8] = SGF with pepsin pH 1.5, 37° C., 0.5 mM, time 4 h
[9] = SGF with pepsin pH 1.5, 37° C., 0.5 mM, time 24 h
[10] = SGF with pepsin pH 1.5, 37° C., time 1 h
[11] = SGF with pepsin pH 1.5, 37° C., time 4 h
[12] = SGF with pepsin pH 1.5, 37° C., time 24 h
[13] = SGF with pepsin pH 1.5, 37° C., time 1 min
[14] = SGF with pepsin pH 1.5, 37° C., time 5 min
[15] = SGF with pepsin pH 1.5, 37° C., time 30 min

Row | Molecule | Condition 1 Conversion (%) [1, 4] [%] | Condition 1 Conversion (%) [1, 5] [%] | Condition 1 Conversion (%) [1, 6] [%] | Condition 1 Conversion (%) [1, 7] [%] | Condition 1 Conversion (%) [1, 8] [%] | Condition 1 Conversion (%) [1, 9] [%] | further results
1 | COc1ccc([C@]23CCN(C)[C@H]2CC2(CC3)OCCS2)cc1OC (stereo partly shown) [Compound 69] | 0 | 0 | 0 | 0 | 0 | 0 | –
2 | COc1ccc([C@@]23CCN(C)[C@@H]2CC2(CC3)OCCS2)cc1OC (stereo partly shown) [Compound 070] | 0 | 0 | 0 | 0 | 0 | 0 | –
3 | COc1ccc([C@]23CCN(C)[C@H]2CC2(CC3)OC[C@@H](c3ccccc3)O2)cc1OC (stereo partly drawn) [Compound 081, (3′aS,4R,7′aS)-3′a-(3,4-dimethoxyphenyl)-1′-methyl-4-phenyl-spiro[1,3-dioxolane-2,6′-2,3,4,5,7,7a-hexahydroindole]] | 0 | 0 | 0 | 0 | 0 | 0 | –
4 | COc1ccc([C@]23CCN(C)[C@H]2CC2(CC3)OC[C@H](c3cccnc3)O2)cc1OC (stereo partly drawn) [Compound 109, (3′aS,7′aS)-3′a-(3,4-dimethoxyphenyl)-1′-methyl-4-(3-pyridyl)spiro[1,3-dioxolane-2,6′-2,3,4,5,7,7a-hexahydroindole]] | 0 | 0 | 0 | 0 | 0 | 0 | –
5 | COc1ccc([C@]23CCN(C)[C@H]2CC2(CC3)OCC(c3ccncc3)O2)cc1OC (stereo partly drawn) [Compound 110, (3′aS,7′aS)-3′a-(3,4-dimethoxyphenyl)-1′-methyl-4-(4-pyridyl)spiro[1,3-dioxolane-2,6′-2,3,4,5,7,7a-hexahydroindole]] | 0 | 0 | 0 | 0 | 0 | 0 | –
6 | COc1cccc(C2COC3(CC[C@@]4(c5ccc(OC)c(OC)c5)CCN(C)[C@H]4C3)O2)c1 (stereo partly drawn) [Compound 111, (3′aS,7′aS)-3′a-(3,4-dimethoxyphenyl)-4-(3-methoxyphenyl)-1′-methyl-spiro[1,3-dioxolane-2,6′-2,3,4,5,7,7a-hexahydroindole]] | 0 | 0 | 0 | 0 | 0 | 0 | –
7 | COc1ccc([C@]23CCN(C)[C@H]2CC2(CC3)OCC(c3cccc([N+](=O)[O-])c3)O2)cc1OC (stereo partly drawn) [Compound 113, (3′aS,7′aS)-3′a-(3,4-dimethoxyphenyl)-1′-methyl-4-(3-nitrophenyl)spiro[1,3-dioxolane-2,6′-2,3,4,5,7,7a-hexahydroindole]] | 0 | 0 | 0 | 0 | 0 | 0 | –
8 | COc1ccc([C@@]23CCC(=NNCCc4ccccc4)C[C@@H]2N(C)CC3)cc1OC [Compound 159, N-[[(3aS,7aS)-3a-(3,4-dimethoxyphenyl)-1-methyl-2,3,4,5,7,7a-hexahydroindol-6-ylidene]amino]-2-phenyl-ethanamine] | – | – | – | – | – | – | Condition 1 Conversion (%) ([1]; pH 1.5): 77% and 91% and 100% (2×)
9 | COc1ccc([C@@]23CCC(=NNC(N)=O)C[C@@H]2N(C)CC3)cc1OC [Compound 197, [[(3aS,7aS)-3a-(3,4-dimethoxyphenyl)-1-methyl-2,3,4,5,7,7a-hexahydroindol-6-ylidene]amino]urea] | – | – | – | – | – | – | Condition 1 Conversion (%) ([1]; pH 1.5): 0%
10 | COc1ccc([C@@]23CCC(=NOCC(=O)OC(C)(C)C)C[C@@H]2N(C)CC3)cc1OC [Compound 202, tert-butyl 2-[[(3aS,7aS)-3a-(3,4-dimethoxyphenyl)-1-methyl-2,3,4,5,7,7a-hexahydroindol-6-ylidene]amino]oxyacetate] | – | – | – | 1.12 | 3.01 | 64.4 | Condition 1 Conversion (%), second value of a/b [1, 10]: 0%; Condition 1 Conversion (%), second value of a/b [1, 11]: 6.42%; Condition 1 Conversion (%), second value of a/b [1, 12]: 6.42%
11 | COc1ccc([C@@]23CC/C(=N\OC(C)(C)OC)C[C@@H]2N(C)CC3)cc1OC [Compound 204, (E,3aS,7aS)-3a-(3,4-dimethoxyphenyl)-N-(1-methoxy-1-methyl-ethoxy)-1-methyl-2,3,4,5,7,7a-hexahydroindol-6-imine] | 100 | 100 | 0 | 0 | 0 | 0 | Condition 1 Conversion (%), second value of a/b [1, 13]: 0%; Condition 1 Conversion (%), second value of a/b [1, 14]: 0%; Condition 1 Conversion (%), second value of a/b [1, 15]: 100%; Condition 1 Conversion (%), second value of a/b [1, 10]: 100%; Condition 1 Conversion (%), second value of a/b [1, 11]: 100%; Condition 1 Conversion (%), second value of a/b [1, 12]: 100%
12 | COc1ccc([C@@]23CCC(=NOC4CCCCO4)C[C@@H]2N(C)CC3)cc1OC (stereo partly drawn) [Compound 206, (3aS,7aS)-3a-(3,4-dimethoxyphenyl)-1-methyl-N-tetrahydropyran-2-yloxy-2,3,4,5,7,7a-hexahydroindol-6-imine] | – | – | 1.41 | 7.83 | 0 | 0 | Condition 1 Conversion (%), second value of a/b [1, 15]: 0%; Condition 1 Conversion (%), second value of a/b [1, 10]: 2.57%; Condition 1 Conversion (%), second value of a/b [1, 11]: 77.75%; Condition 1 Conversion (%), second value of a/b [1, 12]: 100%
13 | COc1ccc([C@]23CCN(C)[C@H]2CC2(CC3)OCC(C)O2)cc1OC (stereo partly drawn) [Compound 211, (3′aS,7′aS)-3′a-(3,4-dimethoxyphenyl)-1′,4-dimethyl-spiro[1,3-dioxolane-2,6′-2,3,4,5,7,7a-hexahydroindole]] | 0 | 0 | 0 | 0 | 0 | 0 | –
14 | C=CC1OC2(CC[C@@]3(c4ccc(OC)c(OC)c4)CCN(C)[C@H]3C2)OC1C=C (stereo partly drawn) [Compound 213, (3′aS,7′aS)-3′a-(3,4-dimethoxyphenyl)-1′-methyl-4,5-divinyl-spiro[1,3-dioxolane-2,6′-2,3,4,5,7,7a-hexahydroindole]] | 0 | 0 | 0 | 0 | 0 | 0 | –
15 | COc1ccc([C@]23CCN(C)[C@H]2CC2(CC3)OCC(COCc3ccccc3)O2)cc1OC (stereo partly shown) [Compound 215] | 0 | 0 | 6.1 | 15.2 | 25.8 | 46.8 | –
16 | COc1ccc([C@@]23CC/C(=N/OC(C)(C)OC)C[C@@H]2N(C)CC3)cc1OC [Compound 219, (Z,3aS,7aS)-3a-(3,4-dimethoxyphenyl)-N-(1-methoxy-1-methyl-ethoxy)-1-methyl-2,3,4,5,7,7a-hexahydroindol-6-imine] | 100 | 100 | 0 | 0 | 0 | 0 | Condition 1 Conversion (%), second value of a/b [1, 13]: 0%; Condition 1 Conversion (%), second value of a/b [1, 14]: 0%; Condition 1 Conversion (%), second value of a/b [1, 15]: 100%; Condition 1 Conversion (%), second value of a/b [1, 10]: 100%; Condition 1 Conversion (%), second value of a/b [1, 11]: 100%; Condition 1 Conversion (%), second value of a/b [1, 12]: 100%
17 | COc1ccc([C@@]23CCC(OC(=O)c4c(C)cc(C)cc4C)=C[C@@H]2N(C)CC3)cc1OC [Compound 356, (3aS,7aS)-3a-(3,4-dimethoxyphenyl)-1-methyl-2,3,3a,4,5,7a-hexahydro-1H-indol-6-yl 2,4,6-trimethylbenzoate] | – | – | – | – | – | – | Rat Plasma Prodrug (%) ([2]; 0 min): 100.0%; Rat Plasma Prodrug (%) ([2]; 10 min): >99%; Rat Plasma Prodrug (%) ([2]; 30 min): >99%; Rat Plasma Prodrug (%) ([2]; 60 min): >99%; Rat Plasma Prodrug (%) ([2]; 120 min): >99%; Rat Plasma Prodrug (%) ([2]; 240 min): 95.8%; Human Plasma Prodrug (%) ([3]; 0 min): 100.0%; Human Plasma Prodrug (%) ([3]; 10 min): >99%; Human Plasma Prodrug (%) ([3]; 30 min): >99%; Human Plasma Prodrug (%) ([3]; 60 min): >99%; Human Plasma Prodrug (%) ([3]; 120 min): >99%; Human Plasma Prodrug (%) ([3]; 240 min): >99%
18 | CCCCCCCC(=O)OC1=C[C@@H]2N(C)CC[C@]2(c2ccc(OC)c(OC)c2)CC1 [Compound 395, (3aS,7aS)-3a-(3,4-dimethoxyphenyl)-1-methyl-2,3,3a,4,5,7a-hexahydro-1H-indol-6-yl octanoate] | – | – | – | – | – | – | Rat Plasma Prodrug (%) ([2]; 0 min): 100.0%; Rat Plasma Prodrug (%) ([2]; 10 min): 0.3%; Rat Plasma Prodrug (%) ([2]; 30 min): 0.1%; Rat Plasma Prodrug (%) ([2]; 60 min): 0.1%; Rat Plasma Prodrug (%) ([2]; 120 min): 0.1%; Rat Plasma Prodrug (%) ([2]; 240 min): 0.1%; Human Plasma Prodrug (%) ([3]; 0 min): 100.0%; Human Plasma Prodrug (%) ([3]; 10 min): 13.9%; Human Plasma Prodrug (%) ([3]; 30 min): 3.5%; Human Plasma Prodrug (%) ([3]; 60 min): 1.1%; Human Plasma Prodrug (%) ([3]; 120 min): 0.3%; Human Plasma Prodrug (%) ([3]; 240 min): 0.1%
19 | N-[[(3aS,7aS)-3a-(3,4-dimethoxyphenyl)-1-methyl-3,4,7,7a-tetrahydro-2H-indol-6-yl]3,4-dimethoxybenzoate [Compound 302] | 0 | 0 | 0 | 0 | 0 | 0 | –

Source: US12269800B2, “Delivery of therapeutic alkaloid compounds” (priority 2021, dated 2025)
